Source: patent US20110129932A1, “Lipoprotein Assay” (L3 TECHNOLOGY LIMITED, priority 2006, published 2011)
One block for each compound: values may come before it.

Legend:
[1] = molecular target: T1, Human Serum Albumin (HSA) (Homo sapiens, UniProt P02768); experiment: K-37 fluorescence bound to HSA with and without octanoate (Example 4); assay type: binding
Description: (§1) The dye K-37 was added at a concentration of 0.5 mM to LDL at a total lipid concentration of 5 mM, in the presence and absence of 50 mg/ml HSA. Measurements were made with and without the addition of 0.1 M sodium octanoate, which acted as a ligand binding inhibitor.

[2] = molecular target: T1, Human Serum Albumin (HSA); experiment: Nile Red fluorescence bound to HSA with and without octanoate (Example 5); assay type: binding
Description: as §1
Following the findings described in Example 4, concerning the addition of octanoate to block the hydrophobic binding sites of HSA, the inventors then observed that Nile Red also binds to HSA and fluoresces. This additional fluorescence of Nile Red when bound to HSA also causes a substantial background signal, which distorts and thereby causes significant errors in the measurement of HDL. They therefore decided to block the hydrophobic binding sites in HSA with the same ligand binding inhibitor as for K-37 blocking, i.e. sodium octanoate. The experiments conducted with Nile Red and HSA, were based on those discussed in Example 4, and all using 0.5 mM Nile Red.

[3] = molecular target: drug binding domain of HSA (Homo sapiens, UniProt P02768); experiment: Blocking the drug binding domain of HSA in the HDL/Nile red assay
Chain of drug binding domain of HSA (P02768 25-609): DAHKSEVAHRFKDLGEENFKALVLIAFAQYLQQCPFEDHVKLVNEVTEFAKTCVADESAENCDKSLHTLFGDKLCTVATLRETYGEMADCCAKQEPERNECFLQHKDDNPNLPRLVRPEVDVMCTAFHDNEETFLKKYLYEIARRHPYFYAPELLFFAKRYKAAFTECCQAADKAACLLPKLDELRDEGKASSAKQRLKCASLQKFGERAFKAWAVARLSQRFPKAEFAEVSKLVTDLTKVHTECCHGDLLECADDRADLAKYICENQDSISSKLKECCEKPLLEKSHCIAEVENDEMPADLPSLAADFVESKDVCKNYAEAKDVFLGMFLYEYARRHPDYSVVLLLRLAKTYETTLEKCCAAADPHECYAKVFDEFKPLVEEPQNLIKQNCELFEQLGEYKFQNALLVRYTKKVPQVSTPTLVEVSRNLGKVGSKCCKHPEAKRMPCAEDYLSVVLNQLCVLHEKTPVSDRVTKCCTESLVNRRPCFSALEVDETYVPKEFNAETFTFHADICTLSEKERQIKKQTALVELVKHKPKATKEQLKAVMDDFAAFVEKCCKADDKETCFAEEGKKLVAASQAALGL
From the text: This led the inventors to realise that the HDL/Nile red assay may be improved further by using an additional blocker. They tried agents that block the drug binding domain of HSA. […] The benzoic acid has the added bonus of quenching the Nile Red residual fluorescence in solution by about 20%.

[4] = Excitation and emission maxima of the dyes; assay type: physicochemical

T1 sequence (P02768 25-609): as above

Fluorescence Intensity ([1]; 0.5 mM K-37 plus 50 mg/ml HSA): 79300 units
Fluorescence Intensity ([1]; 0.5 mM K-37 plus 50 mg/ml HSA + 0.1 M sodium octanoate): 3600 units
Compound: CN(C)c1ccc(/C=C/C(=O)c2ccc(S(=O)(=O)C(F)F)cc2)cc1 [K-37, 4-dimethylamino-4′-difluoromethyl-sulphonyl-benzylidene-acetophenone]

Compound: CCN(CC)c1ccc2nc3c4ccccc4c(=O)cc-3oc2c1 [Nile Red]
Fluorescence Intensity ([2]; 0.5 mM Nile Red plus 50 mg/ml HSA): 58.905 units
Fluorescence Intensity ([2]; 0.5 mM Nile Red plus 50 mg/ml HSA + 50 mM octanoate): 9.118 units

Compound: O=C(O)c1ccccc1 [benzoic acid]
quenching of the Nile Red residual fluorescence in solution [3]: about 20%
displacement of Nile Red from HSA ([3]; at about 5 mM, without affecting the lipoprotein fluorescence): worked to displace the Nile Red from HSA

Compound: c1cc2ccc3cccc4ccc(c1)c2c34 [pyrene]
excitation maximum [4]: 320 nm
